Results as given in US20250127778A1, “CANCER IMMUNOTHERAPY COMPOSITION CONTAINING INTERACTION INHIBITOR OF STING AND TRIM29 AS ACTIVE INGREDIENT” (SPARK BIOPHARMA, INC, priority 2021, published 2025).

Tests used:
[1] = system: TRIM29-mediated Lys48 polymerized multi-ubiquitination of STING; experiment: ELISA detection of STING Lys48 polymerized multi-ubiquitination in HEK293T cells; format: cell-based, human; settings: with MG132, three hours, FIG. 8
Procedure: It was confirmed whether the oxopiperazine derivatives of Formulas 1 to 6 increased the intracellular amount by preventing the degradation of STING through TRIM29-mediated Lys48 polymerized multi-ubiquitination (K48 linkage-specific polyubiquitination).
Specifically, HEK293T cells were seeded in a transparent 6-well plate and cultured for one day. […] At this time, only the effect of the compound was quantitatively detected in a manner of using an analysis value of the sample that was not treated with MG132, a proteasome inhibitor that prevents the removal of ubiquitinated proteins, as a control group and subtracting the analysis value from an analysis value of the sample that was treated with MG132. […] The protein concentration of the supernatant was measured by using Bradford assay reagent. […] To confirm the quantitative concentration, a 5× SDS-PAGE loading buffer (Biosesang) was added at the ratio of the manufacturer to a portion of the sample, and then the resultant was treated at 95° C. for five minutes and analyzed by using the western blotting method described above. […]

STING = target: T1, STING (Mus musculus, UniProt Q3TBT3); experiment: Flow cytometry of intracellular STING in Raw264.7 cells; format: cell-based; design: endogenous in cells; host or cells: Raw264.7; settings: 24 hours, FIG. 15
T1 sequence (Q3TBT3 1-378): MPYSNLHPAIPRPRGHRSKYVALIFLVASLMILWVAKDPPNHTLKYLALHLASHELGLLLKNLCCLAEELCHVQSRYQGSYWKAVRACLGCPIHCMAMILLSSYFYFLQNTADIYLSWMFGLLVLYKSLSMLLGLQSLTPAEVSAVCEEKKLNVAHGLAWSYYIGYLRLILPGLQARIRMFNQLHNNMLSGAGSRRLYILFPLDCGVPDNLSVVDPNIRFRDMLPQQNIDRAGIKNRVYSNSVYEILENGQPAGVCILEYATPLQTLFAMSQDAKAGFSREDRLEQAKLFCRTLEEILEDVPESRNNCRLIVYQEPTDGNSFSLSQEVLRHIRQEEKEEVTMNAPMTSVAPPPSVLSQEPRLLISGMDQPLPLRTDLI
Procedure: It was verified whether the oxopiperazine derivatives increased the efficacy of STING agonists and other cancer immunotherapy, including immune checkpoint inhibitors. First, it was verified through flow cytometry and Western blotting whether the oxopiperazine derivatives increase the amount of STING.
To measure the intracellular amount of STING through flow cytometry, Raw264.7 cells were seeded in a transparent 6-well plate and cultured for one day. Thereafter, the cells were treated with a solution, in which the compound of Formula 1 is diluted in a culture medium without FBS, and cultured for 24 hours. […] After centrifugation of the collected cells, the supernatant was removed, the cells were redistributed in FACS solution (Hank's balanced salt solution (HBSS) including 2% horse serum and 0.05% NaN3), and the number of cells was measured. […] Finally, the Triton solution was added, centrifugation was performed, the supernatant was removed, the cells were redistributed into 200 μL of the Triton solution and analyzed by using a FACSCalibur instrument from BD Bioscience, and the results were quantitatively analyzed by using the FlowJo program from Tree Star, Inc.

COc1ccc(CC2=CN(c3ccc(C(=O)NC[C@H]4CCCO4)cc3[N+](=O)[O-])[C@H](C(C)C)C(=O)N2Cc2ccc(O)cc2)cc1 [Formula 1, 4-((R)-4-(4-hydroxybenzyl)-2-isopropyl-5-(4-methoxybenzyl)-3-oxo-3,4-dihydropyrazin-1 (2H)-yl)-3-nitro-N-(((R)-tetrahydrofuran-2-yl)methyl)benzamide]
TRIM29-mediated lysine 48 polymerized multi-ubiquitination of STING [1]: inhibited
fluorescence labeling intensity of intracellular STING (STING): increased in a concentration-dependent manner
